Results on 32 compounds are retold here after patent publication US12139477B2, “Compounds, salts thereof and methods for treatment of diseases” (ACADIA PHARMACEUTICALS INC., priority 2017, dated 2024).

Chain of 5HT2A (P28223 whole entry): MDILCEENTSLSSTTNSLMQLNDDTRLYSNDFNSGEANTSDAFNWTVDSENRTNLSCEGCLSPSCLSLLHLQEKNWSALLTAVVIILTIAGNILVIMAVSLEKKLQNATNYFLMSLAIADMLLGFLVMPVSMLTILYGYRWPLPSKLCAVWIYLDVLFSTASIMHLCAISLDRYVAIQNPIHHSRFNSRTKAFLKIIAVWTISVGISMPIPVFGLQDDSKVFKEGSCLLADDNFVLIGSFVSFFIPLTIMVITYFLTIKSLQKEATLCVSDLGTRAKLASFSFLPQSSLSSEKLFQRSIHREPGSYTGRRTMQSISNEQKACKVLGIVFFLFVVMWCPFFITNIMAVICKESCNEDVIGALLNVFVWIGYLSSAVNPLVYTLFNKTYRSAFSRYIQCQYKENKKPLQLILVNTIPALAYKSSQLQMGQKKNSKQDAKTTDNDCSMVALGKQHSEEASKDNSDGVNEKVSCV

This experiment has as its target 5HT2A (Homo sapiens, UniProt P28223). As to the kind of experiment: Receptor Selection and Amplification (R-SAT) functional assay. On the set-up: expressed in transfected cells; host or cells: NIH3T3 cells, pSI mammalian expression vector. Conditions: NIH3T3 cells; Ki from IC50 by Cheng and Prussoff; read-out: 5-HT2a (pKi) (R-SAT) (converted). The experiment is classed as cell-based. The source says:
Receptor Selection and Amplification (R-SAT) Assays. […] The IC50 determined in the RSAT assay was converted into a Ki value using the method of Cheng and Prussoff, Biochem Pharmacol., 1973 Dec. 1; 22(23):3099-108. pKi is the negative of the log(Ki).
In the case of `CN1CCC(N(Cc2ccc(F)cc2F)C(=O)NCc2ccc([C@H](O)CO)cc2)CC1` (racemic) [Example 94, 1-[(2,4-difluorophenyl)methyl]-3-({4-[(1R)-1,2-dihydroxyethyl]phenyl}methyl)-1-(1-methylpiperidin-4-yl)urea; Trifluoroacetic Acid and 1-[(2,4-difluorophenyl)methyl]-3-({4-[(1S)-1,2-dihydroxyethyl]phenyl}methyl)-1-(1-methylpiperidin-4-yl)urea; Trifluoroacetic Acid], the Ki is 100 nM.
The same measure for `CC(C)COc1ccc(CNC(=O)N(Cc2ccc(Cl)cc2Cl)C2CCNCC2)cc1` [Example 111, 1-[(2,4-dichlorophenyl)methyl]-3-{[4-(2-methylpropoxy)phenyl]methyl}-1-(piperidin-4-yl)urea; Trifluoroacetic Acid]: 79.4 nM; for `COc1ccc(CNC(=O)N(Cc2ccc(F)cc2)[C@H]2CCN(C)C[C@H]2F)c(OC)c1` (racemic) [Example 1, 1-[(2,4-dimethoxyphenyl)methyl]-3-[(3R,4S)-3-fluoro-1-methylpiperidin-4-yl]-3-[(4-fluorophenyl)methyl]urea; Trifluoroacetic Acid (1a) and 1-[(2,4-dimethoxyphenyl)methyl]-3-[(3S,4R)-3-fluoro-1-methylpiperidin-4-yl]-3-[(4-fluorophenyl)methyl]urea; Trifluoroacetic Acid (1b)]: 25.1 nM.
The value for `CC(C)Oc1ccc(CNC(=O)N(Cc2ccc(Cl)cc2Cl)C2CCNCC2)cc1` [Example 108, 1-[(2,4-dichlorophenyl)methyl]-1-(piperidin-4-yl)-3-{[4-(propan-2-yloxy)phenyl]methyl}urea; Trifluoroacetic Acid] was 79.4 nM; that for `COc1ccc(CN(C(=O)NCc2ccc(OCC(C)C)cc2)C2CCN(C)CC2)c(OC)c1` [Example 2, 3-[(2,4-dimethoxyphenyl)methyl]-3-(1-methylpiperidin-4-yl)-1-{[4-(2-methylpropoxy)phenyl]methyl}urea] was 3160 nM; that for `CN1CCC(N(Cc2ccc(F)cc2F)C(=O)NCc2ccc(F)cc2)CC1` [Example 49] was 6.31 nM.
The value for `CC(C)C(C)(O)COc1ccc(CNC(=O)N(Cc2ccc(F)cc2F)C2CCN(C)CC2)cc1` (centres unmarked) [Example 87, 1-[(2,4-difluorophenyl)methyl]-3-{[4-(2-hydroxy-2,3-dimethylbutoxy)phenyl]methyl}-1-(1-methylpiperidin-4-yl)urea; Trifluoroacetic Acid] was 10 nM; that for `CN1CCC(N(Cc2ccc(F)cc2)C(=O)NCc2ccc(F)cc2F)CC1` [Example 100, 3-[(2,4-difluorophenyl)methyl]-1-[(4-fluorophenyl)methyl]-1-(1-methylpiperidin-4-yl)urea; Trifluoroacetic Acid] was 20 nM; that for `CN1CCC(N(Cc2ccc(F)cc2F)C(=O)NCc2ccc3ocnc3c2)CC1` [Example 30] was 63.1 nM.
As for `COc1ccc(CNC(=O)N(Cc2ccc(F)cc2F)C2CCN(C)CC2)c(C(F)(F)F)c1` [Example 53], the Ki is 25.1 nM.
The value for `COc1cc(CNC(=O)N(Cc2ccc(F)cc2F)C2CCN(C)CC2)ccc1F` [Example 146, 1-[(2,4-difluorophenyl)methyl]-3-[(4-fluoro-3-methoxyphenyl)methyl]-1-(1-methylpiperidin-4-yl)urea; Trifluoroacetic Acid] was 5.01 nM.
In the case of `COc1cc(F)ccc1CN(C(=O)NCc1ccc(OCC(C)C)cc1)C1CCN(C)CC1` [Example 91, 1-[(4-fluoro-2-methoxyphenyl)methyl]-1-(1-methylpiperidin-4-yl)-3-{[4-(2-methylpropoxy)phenyl]methyl}urea; Trifluoroacetic Acid], the Ki was 15.8 nM.
The same measure for `CCCCOc1ccc(CNC(=O)N(Cc2ccc(F)cc2F)C2CCN(C)CC2)cc1` [Example 124, 3-[(4-butoxyphenyl)methyl]-1-[(2,4-difluorophenyl)methyl]-1-(1-methylpiperidin-4-yl)urea]: 10 nM; for `CC(C)Oc1ccc(CNC(=O)N(Cc2ccc(F)cc2F)[C@@H]2CCN3CCC[C@H]3C2)cc1` [Example 80, 1-[(7R,8aS)-octahydroindolizin-7-yl]-1-[(2,4-difluorophenyl)methyl]-3-{[4-(propan-2-yloxy)phenyl]methyl}urea; Trifluoroacetic Acid]: 2.51 nM; for `CC(C)Oc1ccc(CNC(=O)N(Cc2c(F)ccc(F)c2F)C2CCN(C)CC2)cc1` [Example 113, 1-(1-methylpiperidin-4-yl)-3-{[4-(propan-2-yloxy)phenyl]methyl}-1-[(2,3,6-trifluorophenyl)methyl]urea; Trifluoroacetic Acid]: 126 nM.
The same measure for `COc1cc(OC(C)C)ccc1CNC(=O)N(Cc1ccc(F)cc1F)C1CCN(C)CC1` [Example 74, 1-[(2,4-difluorophenyl)methyl]-3-{[2-methoxy-4-(propan-2-yloxy)phenyl]methyl}-1-(1-methylpiperidin-4-yl)urea]: 39.8 nM; for `CN1CCC(N(Cc2ccc(F)cc2F)C(=O)NCc2ccc3[nH]cnc3c2)CC1` [Example 77, 3-[(1H-1,3-benzodiazol-5-yl)methyl]-1-[(2,4-difluorophenyl)methyl]-1-(1-methylpiperidin-4-yl)urea; Trifluoroacetic Acid]: 79.4 nM; for `CN1CCC(N(Cc2ccc(F)cc2F)C(=O)NCc2ccc3c(c2)OC(C)(C)C3)CC1` [Example 59]: 15.8 nM.
The value for `CC(C)COc1ccc(CNC(=O)N(Cc2ccc(C(F)(F)F)cc2F)C2CCN(C)CC2)cc1` [Example 68] was 20 nM; that for `COc1cc(F)c(CN(C(=O)NCc2ccc(OC(C)C)cc2)C2CCN(C)CC2)c(F)c1` [Example 136, 1-[(2,6-difluoro-4-methoxyphenyl)methyl]-1-(1-methylpiperidin-4-yl)-3-{[4-(propan-2-yloxy)phenyl]methyl}urea; Trifluoroacetic Acid] was 7.94 nM.
With `CC(C)Oc1ccc(CNC(=O)N(Cc2ccc(F)c(F)c2)C2CCN(C)CC2)cc1` [Example 130, 1-[(3,4-difluorophenyl)methyl]-1-(1-methylpiperidin-4-yl)-3-{[4-(propan-2-yloxy)phenyl]methyl}urea; Trifluoroacetic Acid], the Ki is 79.4 nM.
As for `CC(C)COc1ccc(CNC(=O)N(Cc2cc(F)c(F)cc2F)C2CCN(C)CC2)cc1` [Example 70], the Ki was 50.1 nM.
As to `CC(C)COc1ccc(CNC(=O)N(Cc2ccc(F)cc2OC(F)F)C2CCN(C)CC2)cc1` [Example 101, 1-{[2-(difluoromethoxy)-4-fluorophenyl]methyl}-1-(1-methylpiperidin-4-yl)-3-{[4-(2-methylpropoxy)phenyl]methyl}urea; Trifluoroacetic Acid], the Ki was 79.4 nM.
The same measure for `Cc1c(F)ccc(CN(C(=O)NCc2ccc(OC(C)C)cc2)C2CCN(C)CC2)c1F` [Example 114, 1-[(2,4-difluoro-3-methylphenyl)methyl]-1-(1-methylpiperidin-4-yl)-3-{[4-(propan-2-yloxy)phenyl]methyl}urea; Trifluoroacetic Acid]: 6.31 nM.
With `CC(C)COc1ccc(CNC(=O)N(Cc2ccc(Cl)cc2F)C2CCNCC2)cc1` [Example 134, 3-[(4-chloro-2-fluorophenyl)methyl]-1-{[4-(2-methylpropoxy)phenyl]methyl}-3-(piperidin-4-yl)urea; Trifluoroacetic Acid], the Ki is 3.98 nM.
The same measure for `CC(C)Oc1ccc(CNC(=O)N(Cc2ccc(F)c(F)c2F)C2CCN(C)CC2)cc1` [Example 135, 1-(1-methylpiperidin-4-yl)-3-{[4-(propan-2-yloxy)phenyl]methyl}-1-[(2,3,4-trifluorophenyl)methyl]urea; Trifluoroacetic Acid]: 15.8 nM; for `CCCCC(CC)COc1ccc(CNC(=O)N(Cc2ccc(F)cc2F)C2CCN(C)CC2)cc1` (centres unmarked) [Example 147, 1-[(2,4-difluorophenyl)methyl]-3-({4-[(2-ethylhexyl)oxy]phenyl}methyl)-1-(1-methylpiperidin-4-yl)urea; Trifluoroacetic Acid]: 3.16 nM.
The same measure for `CN1CC[C@@H](N(Cc2ccc(F)cc2F)C(=O)NCc2ccc(OC3CC3)cc2)[C@@H](F)C1` (racemic) [Example 117, 1-[(4-cyclopropoxyphenyl)methyl]-3-[(2,4-difluorophenyl)methyl]-3-[(3S,4R)-3-fluoro-1-methylpiperidin-4-yl]urea and 1-[(4-cyclopropoxyphenyl)methyl]-3-[(2,4-difluorophenyl)methyl]-3-[(3R,4S)-3-fluoro-1-methylpiperidin-4-yl]urea]: 0.398 nM; for `CC(C)COc1ccc(CNC(=O)N(Cc2ccc(C(F)(F)F)cc2O)C2CCN(C)CC2)cc1` [Example 90, 1-{[2-hydroxy-4-(trifluoromethyl)phenyl]methyl}-1-(1-methylpiperidin-4-yl)-3-{[4-(2-methylpropoxy)phenyl]methyl}urea; Trifluoroacetic Acid]: 12.6 nM; for `CC(C)COc1ccc(CNC(=O)N(Cc2ccc(F)cc2OC(F)(F)F)C2CCN(C)CC2)cc1` [Example 103, 1-{[4-fluoro-2-(trifluoromethoxy)phenyl]methyl}-1-(1-methylpiperidin-4-yl)-3-{[4-(2-methylpropoxy)phenyl]methyl}urea; Trifluoroacetic Acid]: 251 nM.
The same measure for `CN1CCC(N(Cc2ccc(F)cc2F)C(=O)NCc2ccc(Oc3ccccc3)cc2)CC1` [Example 120, 3-[(2,4-difluorophenyl)methyl]-3-(1-methylpiperidin-4-yl)-1-[(4-phenoxyphenyl)methyl]urea]: 7.94 nM.
Regarding `CC(C)Oc1ccc(CNC(=O)N(Cc2ccc(Cl)cc2Cl)C2CCN(C)CC2)cc1` [Example 106, 1-[(2,4-dichlorophenyl)methyl]-1-(1-methylpiperidin-4-yl)-3-{[4-(propan-2-yloxy)phenyl]methyl}urea; Trifluoroacetic Acid], the Ki was 50.1 nM.
